Values of other authors in paper PMC11767451, “Novel Approaches to Monitor Pharmacokinetics and Metabolism of Gemcitabine-Ibandronate Conjugate in Mice and Dogs” (Molecules, 2025).

Set-up: method as in PMID 36571444, PMID 24131140, PMID 21561347
Conditions: cancer patients; cited from earlier work

For `Nc1ccn([C@@H]2O[C@H](CO)[C@@H](O)C2(F)F)c(=O)n1` [GEM, gemcitabine], the “fatal treatment-related events, share of patients” value is given as <1% to 4.
